Source: patent US20040209843A1, “Aqueous cilostazol preparation for injection” (priority 2001, published 2004)
Converted amounts (≈) assume the structure as drawn.

Legend:
[1] = saturated concentration (solubility) of cilostazol in aqueous cyclodextrin solutions, determined by HPLC; type: physicochemical; conditions: aqueous with cosolvent or surfactant or cyclodextrin, thermodynamic from solid; excess cilostazol in water for injection with the row's cyclodextrin compound at the row's concentration (g/L); shaken at 60° C. for 24 hours, membrane filtered, HPLC of filtrate
Method: Each of the following cyclodextrin compounds was dissolved in water for injection. To this, an excess amount of cilostazol was added and the mixture was shaken at 60° C. for 24 hours. Then, the mixture was filtered through a membrane filter to remove insoluble materials and the amount of cilostazol in the filtrate was determined by the method of HPLC (High Performance Liquid Chromatography) to calculate the saturated concentration (solubility). Cyclodextrin compounds used were alpha-cyclodextrin (Trade Name: Celdex A-100, manufactured by NIHON SHOKUHIN KAKO Co. Ltd., beta-cyclodextrin (Trade Name: Celdex B-100, manufactured by NIHON SHOKUHIN KAKO Co. Ltd.), gamma-cyclodextrin (Trade Name: Celdex C-100, manufactured by NIHON SHOKUHIN KAKO Co. Ltd.), 6-O-alpha-maltosyl-beta-cyclodextrin (manufactured by Ensuiko Sugar Refining Co., Ltd), 2-hydroxypropyl-beta-cyclodextrin (Trade Name: Celdex HP-beta-CD, manufactured by NIHON SHOKUHIN KAKO Co. Ltd), hepta-substituted sulfobutylether-beta-cyclodextrin sodium salt (hereinafter abbreviated as SBE7-beta-CD)(Trade Name: Captisol, manufactured by CyDex Inc.).
Also, as a Reference Example, the solubility of cilostazol without addition of cyclodextrin compounds was determined similarly.

[2] = ordinary temperatures; cited from earlier work

In the case of `O=C1CCc2cc(OCCCCc3nnnn3C3CCCCC3)ccc2N1` [Cilostazol, 6-[4-(1-cyclohexyl-1,2,3,4-Tetrazol-5-yl)butoxy]-3,4-dihydrocarbostyril], the solubility at 24 h [1] is listed as 3.5 µg/mL (≈ 9.47 µM) and the solubility in water [2] is listed as “about 3 μg/ml”.
